What was measured:
Assay type in all cases: physicochemical
[1] = D50 particle size of milled drug, turbidimetry; conditions: size detection by turbidimetry; after magnetic stir-bar milling, parameters of Table 2
From the text: (§1) Valdecoxib, linezolid, phenytoin, griseofulvin and carbamazepine were milled according to the general procedure described for celecoxib in Example 1.

[2] = D50 particle size of milled drug, X-ray diffraction; conditions: size detection by X-ray diffraction; after magnetic stir-bar milling, parameters of Table 2
From the text: as §1

[3] = D50 particle size of milled drug, optical microscopy; conditions: size detection by optical microscopy; after magnetic stir-bar milling, parameters of Table 2
From the text: as §1

In the case of `NC(=O)N1c2ccccc2C=Cc2ccccc21` [Carbamazepine], the “D50 (nm)” value [1] is reported as 2500^1 nm and the “D50 (nm)” value [2] is reported as 2600^3 nm.

For `COC1=CC(=O)C[C@@H](C)[C@]12Oc1c(Cl)c(OC)cc(OC)c1C2=O` [Griseofulvin], the “D50 (nm)” value [1] was 250^1 nm and the “D50 (nm)” value [2] was 160^3 nm.

For `CC(=O)NC[C@H]1CN(c2ccc(N3CCOCC3)c(F)c2)C(=O)O1` [Linezolid], the “D50 (nm)” value [1] was 1900^1 nm and the “D50 (nm)” value [3] was 1000^2 nm.

In the case of `O=C1NC(=O)C(c2ccccc2)(c2ccccc2)N1` [Phenytoin], the “D50 (nm)” value [1] is reported as 200^1 nm and the “D50 (nm)” value [2] is reported as 130^3 nm.

For `Cc1onc(-c2ccccc2)c1-c1ccc(S(N)(=O)=O)cc1` [Valdecoxib], the “D50 (nm)” value [1] was 460^1 nm.

Reference: patent US6814319B2, “Laboratory scale milling process” (Pharmacia & Upjohn Company, priority 2000, dated 2004)
